Experimental data taken from patent US20130217122A1, “Expansion of Interferon-Gamma-Producing T-Cells Using Glypican-3 Peptide Library” (The Trustees of the University of Pennsylvania, priority 2012, published 2013).

Assays:
CD8+ T-cells [1] = assay type: cell-based, human
HLA-A2.1 = HLA-A2.1 (Homo sapiens, UniProt P04439, D140Y/D185E/D98H/E176V/E277Q/G131W/G231S/I119V/I121R/I166T/I218V/L300P/L318F/N151K/N90K/P208A/P217A/Q86G/Q94H/R138H/R169H/T345S); test: T2 binding assay; details: 9-10 mer epitopes
CD8+ T-cells [2] = assay type: cell-based, human; remark: listed apart in the source
[3] = molecular target: T1, human HLA-A2.1 on T2 cells (human); test: T2 binding assay (HLA-A2 on T2 cells, flow cytometry)
T1 construct: whole, on cells; Empty or peptide-receptive HLA-A2.1 on TAP-deficient T2 cells; also called HLA-A*0201; class I MHC molecules

Molecule | Median pentamer+/CD8+ cells (range) (CD8+ T-cells [1]) | No. with pentamer + cluster (CD8+ T-cells [1]) | No. with pentamer + cluster (%) (CD8+ T-cells [1]) | binding affinity of optimum HLA-A2-binding epitopes (HLA-A2.1) | PD-1 expression in pentamer-positive versus pentamer-negative CD8+ T-cells (CD8+ T-cells [1]) | IFNγ secretion by expanded cells restimulated with cognate antigens (CD8+ T-cells [2]) | expansion of pentamer-specific CD8+ T-cells (CD8+ T-cells [2]) | binding result [3]
CINGVCWTV [NS3 1073, reference compound] | 0.07 (0.03-0.10) % | 2 (29) | 2 (29) % |  |  |  |  | 
ELFDSLFPV [GPC3 169-178, peptide and HLA-A2.1 pentamer loaded with it] | 1.00 (0.20-1.60) % | 5 (63) | 5 (63) % | strong binding affinity |  |  |  | 
FEFVGEFFTD [GPC3 142-151, peptide and HLA-A2.1 pentamer loaded with it] | 0.47 (0.03-0.90) % | 2 (22) | 2 (22) % | strong binding affinity |  |  |  | 
GILGFTFVL [Flu matrix, reference compound] | 0.40 (0.30-1.30) % | 5 (56) | 5 (56) % |  |  |  |  | 
KLLTSMAISV [GPC3 563-572, peptide and HLA-A2.1 pentamer loaded with it] | 0.45 (0.05-1.60) % | 4 (44) | 4 (44) % | strong binding affinity | strong trend |  |  | 
LMLGEFLKL [SurlM2, reference compound] | 0.20 (0.20-0.20) % | 1 (11) | 1 (11) % |  |  |  |  | 
RLQPGLKWV [GPC3 44-52, peptide and HLA-A2.1 pentamer loaded with it] | 0.20 (0.10-0.30) % | 3 (33) | 3 (33) % | strong binding affinity | significantly greater | minimal-to-absent | readily detectable expansion | 
SLTPQAFEFV [GPC3 136-145, peptide and HLA-A2.1 pentamer loaded with it] | 0.70 (0.05-1.30) % | 4 (50) | 4 (50) % | strong binding affinity |  |  |  | 
RLQPGLKWV (Synthetic 9 mer of human glypican-3 (NP-004475); also called GPC3 44-52; GPC344-52) [Glypican-3 44-52 (RLQPGLKWV)] |  |  |  |  |  |  |  | binds
FEFVGEFFTD (Synthetic 10 mer of human glypican-3 (NP-004475); also called GPC3 142-151; GPC3142-151) [Glypican-3 142-151 (FEFVGEFFTD)] |  |  |  |  |  |  |  | binds
ELFDSLFPV (Synthetic 9 mer of human glypican-3 (NP-004475); also called GPC3 169-177; GPC3169-177) [Glypican-3 169-177 (ELFDSLFPV)] |  |  |  |  |  |  |  | binds
KLLTSMAISV (Synthetic 10 mer of human glypican-3 (NP-004475); also called GPC3 563-572; GPC3563-572) [Glypican-3 563-572 (KLLTSMAISV)] |  |  |  |  |  |  |  | binds
